According to ChEMBL document CHEMBL5335825, “Multi-target potential of newly designed tacrine-derived cholinesterase inhibitors: Synthesis, computational and pharmacological study” (Bioorg Med Chem, 2024):
The source made the active and inactive calls. No cut-off for these calls is given here.

Legend:
Acetylcholinesterase = Acetylcholinesterase (Electrophorus electricus, UniProt O42275); experiment: Inhibition of electric eel AChE using acetylthiocholine iodide as substrate preincubated for 10 mins followed by substrate addition and measured every min for 10 mins by DTNB based Ellman's assay
Cholinesterase = Cholinesterase (Equus caballus, UniProt P81908); experiment: Inhibition of equine serum BuChE using butyrylthiocholine iodide as substrate preincubated for 10 mins followed by substrate addition and measured every min for 10 mins by DTNB based Ellman's assay
[1] = Selectivity index, ratio of IC50 for cytotoxicity against human SH-SY5Y cells to IC50 for inhibition of electric eel AChE
[2] = Selectivity index, ratio of IC50 for cytotoxicity against human SH-SY5Y cells to IC50 for inhibition of equine serum BuChE
in vitro = conditions: human, SH-SY5Y cells
Description: Cytotoxicity against human SH-SY5Y cells assessed as reduction in cell viability incubated for 24 hrs by crystal violet staining based analysis

[3] = biological target: Acetylcholinesterase (Electrophorus electricus) (UniProt O42275); experiment: Mixed type inhibition of electric eel AChE using varying concentrations of acetylthiocholine iodide as substrate assessed as decrease in Vmax with varied Km by Lineweaver-Burk plot analysis
[4] = biological target: Cholinesterase (Equus caballus) (UniProt P81908); experiment: Mixed type inhibition of equine serum BuChE using varying concentrations of butyrylthiocholine iodide as substrate assessed as decrease in Vmax with varied Km by Lineweaver-Burk plot analysis
Sequence of Cholinesterase (Equus caballus) (P81908 whole entry): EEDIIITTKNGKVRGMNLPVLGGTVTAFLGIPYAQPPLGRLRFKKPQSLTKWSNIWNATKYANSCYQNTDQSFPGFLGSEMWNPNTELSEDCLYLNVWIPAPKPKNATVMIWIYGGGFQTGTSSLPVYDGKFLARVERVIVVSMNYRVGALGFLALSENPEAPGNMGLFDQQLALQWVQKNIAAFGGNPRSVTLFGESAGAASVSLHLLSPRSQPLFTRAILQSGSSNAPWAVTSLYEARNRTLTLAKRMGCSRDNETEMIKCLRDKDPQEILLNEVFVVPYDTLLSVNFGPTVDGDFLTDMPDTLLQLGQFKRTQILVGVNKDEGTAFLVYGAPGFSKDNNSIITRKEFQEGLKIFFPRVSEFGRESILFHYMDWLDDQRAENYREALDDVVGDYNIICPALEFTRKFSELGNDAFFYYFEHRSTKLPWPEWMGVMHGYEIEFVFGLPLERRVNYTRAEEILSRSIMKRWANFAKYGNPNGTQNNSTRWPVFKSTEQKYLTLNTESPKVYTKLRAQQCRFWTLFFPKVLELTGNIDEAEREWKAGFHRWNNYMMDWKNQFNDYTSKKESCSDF

Sequence of Acetylcholinesterase (O42275 whole entry): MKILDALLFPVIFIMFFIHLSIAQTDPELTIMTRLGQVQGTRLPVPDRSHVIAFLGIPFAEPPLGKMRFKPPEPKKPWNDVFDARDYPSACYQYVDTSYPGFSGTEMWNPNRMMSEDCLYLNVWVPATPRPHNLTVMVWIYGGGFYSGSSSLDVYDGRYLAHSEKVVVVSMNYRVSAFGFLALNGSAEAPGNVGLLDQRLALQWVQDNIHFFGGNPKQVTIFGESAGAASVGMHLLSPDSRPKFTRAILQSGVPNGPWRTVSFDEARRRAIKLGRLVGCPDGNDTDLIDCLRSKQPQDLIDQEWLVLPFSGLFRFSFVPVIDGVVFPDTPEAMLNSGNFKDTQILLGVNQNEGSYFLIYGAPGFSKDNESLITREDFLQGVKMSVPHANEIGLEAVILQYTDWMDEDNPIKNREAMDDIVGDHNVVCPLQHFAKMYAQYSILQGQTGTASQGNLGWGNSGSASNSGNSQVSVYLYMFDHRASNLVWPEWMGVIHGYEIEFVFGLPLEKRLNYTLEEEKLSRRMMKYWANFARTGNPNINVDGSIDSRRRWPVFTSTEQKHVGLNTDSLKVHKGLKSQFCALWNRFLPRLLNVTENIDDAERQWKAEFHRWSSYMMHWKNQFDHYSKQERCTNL
Sequence of Cholinesterase (P81908 whole entry): as the sequence (P81908 whole entry) above
Sequence of Acetylcholinesterase (Electrophorus electricus) (O42275 24-633 limits assumed): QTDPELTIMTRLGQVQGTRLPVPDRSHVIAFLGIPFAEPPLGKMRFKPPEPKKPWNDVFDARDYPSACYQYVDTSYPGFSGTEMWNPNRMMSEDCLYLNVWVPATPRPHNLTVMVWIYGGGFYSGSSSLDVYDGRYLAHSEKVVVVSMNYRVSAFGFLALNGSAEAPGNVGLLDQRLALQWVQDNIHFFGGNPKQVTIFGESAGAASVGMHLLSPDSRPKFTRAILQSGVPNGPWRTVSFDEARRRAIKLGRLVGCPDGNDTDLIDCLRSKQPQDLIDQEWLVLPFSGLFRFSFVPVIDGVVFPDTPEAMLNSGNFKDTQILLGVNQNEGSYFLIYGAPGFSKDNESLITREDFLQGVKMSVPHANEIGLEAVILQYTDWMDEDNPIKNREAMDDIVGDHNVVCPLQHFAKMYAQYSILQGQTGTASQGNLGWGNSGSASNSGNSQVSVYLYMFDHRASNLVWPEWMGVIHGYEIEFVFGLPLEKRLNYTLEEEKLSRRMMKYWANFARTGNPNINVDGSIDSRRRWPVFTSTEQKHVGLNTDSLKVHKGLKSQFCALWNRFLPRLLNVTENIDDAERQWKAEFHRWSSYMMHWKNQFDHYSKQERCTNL

SMILES	IC50 (Acetylcholinesterase) [nM]	IC50 (Cholinesterase) [nM]	Ratio IC50 [1]	Ratio IC50 [2]	IC50 at 24 h (in vitro) [nM]	inhibition [3]	inhibition [4]
O=C(NCCCCCNc1c2c(nc3ccccc13)CCCC2)C1CCN(C(=O)c2ccccc2)CC1	117	46.5	589.8	1490.3	69300		
O=C(NCCCCCNc1c2c(nc3ccccc13)CCCC2)C1CCN(C(=O)c2ccccc2Cl)CC1	156	82.5	1188.8	2247.9	186000	Active	Active
COc1ccccc1C(=O)N1CCC(C(=O)NCCCCCNc2c3c(nc4ccccc24)CCCC3)CC1	226	48	480.4	2266.7	109000		
O=C(NCCCCCNc1c2c(nc3ccccc13)CCCC2)C1CCN(C(=O)c2ccccn2)CC1	455	324	247.1	347.1	112000		
O=C(NCCCCCNc1c2c(nc3ccccc13)CCCC2)C1CCN(C(=O)c2ccncc2)CC1	291	84	472	1635.1	137000		
O=C(NCCCCCNc1c2c(nc3ccccc13)CCCC2)C1CCN(C(=O)c2cccnc2)CC1	162	98.5					
O=C(NCCCCCNc1c2c(nc3ccccc13)CCCC2)C1CCN(C(=O)c2ccccc2F)CC1	241	34			192000		
COc1ccc(C(=O)N2CCC(C(=O)NCCCCCNc3c4c(nc5ccccc35)CCCC4)CC2)cc1	222	246	667.9	605.3	149000		
O=C(NCCCCCNc1c2c(nc3ccccc13)CCCC2)C1CCN(C(=O)c2cccc(F)c2)CC1	139	73.5	417.2	789	58000		
O=C(NCCCCCNc1c2c(nc3ccccc13)CCCC2)C1CCN(C(=O)c2cccc(Cl)c2)CC1	159	70.5	926.2	2082.3	147000		
O=C(NCCCCCNc1c2c(nc3ccccc13)CCCC2)C1CCN(C(=O)c2ccc(F)cc2)CC1	370	154					
O=C(NCCCCCNc1c2c(nc3ccccc13)CCCC2)C1CCN(C(=O)c2ccc(Cl)cc2)CC1	443	114	69.4	268.5	30700		
COc1cccc(C(=O)N2CCC(C(=O)NCCCCCNc3c4c(nc5ccccc35)CCCC4)CC2)c1	287	60.5	326	1546.3	93600		
